Results published in US20260083126A1, “ANTIMICROBIAL COMPOSITIONS” (AHV International B.V., priority 2022, published 2026).
≈ marks a conversion by molar mass, not a printed value. Read-outs that look alike come from different tables or passages of the source.

Legend:
[1] = test system: Staphylococcus aureus (MRSA) LUH14616; assay: MIC assay; format: cell-based; conditions: for MIC50 / MIC90: Staphylococcus aureus, MRSA
Experimental: (§1) The exact weighed amount was noted and the volume of solvent to reach a 80 mM dilution calculated. Half of the volume was added first, by adding Tween 80 and let stand for 5 minutes. In a second step, the other half of the volume DMSO was added and resuspended to help the dilution process. The closed tube was inverted 5-10 times and then vortexed very thoroughly for at least 30 seconds. If after this procedure crystals were still visible, the tube was placed in a shaker at 37° C. at 150 rpm for at least 30 minutes (it is indicated if the dissolution period was longer than 2 h). […] In case of Bis(4-Chlorophenyl) thiosulfonate, a lower concentrated stock solution of 2 mM needed to be prepared. For that, the required amount of compound was weighed in and 2% v/v Tween80 and 2% v/v DMSO of the end volume of the stock solution was added to the substance. This mix was heated in a water bath set to 40° C. and occasionally shaken. When the whole amount of the substance reached dissolution, the volume was filled up with growth medium until the end volume. This 2 mM stock solution of Bis(4-Chlorophenyl) thiosulfonate was used in the MIC plate and diluted two-fold, resulting in a testing range of Bis(4-Chlorophenyl) thiosulfonate from 1 mM to 0.002 mM.
(§2) The microorganisms as indicated in Table 4 were used to inoculate a tryptic soy agar (TSA) plate and incubated overnight at 37° C. After incubation 3-5 well-isolated colonies with the same morphology were selected from the TSA plate and resuspended in 2 mL 0.9% saline solution with 3-6 glass beads and vortexed. The optical density at 600 nm (OD600) of the bacterial suspension was measured with a spectrophotometer (Evolution™ 201/220 UV-Visible Spectrophotometer, Thermo Fisher Scientific) and diluted to an OD600 of 0.0008, which resembles 10^6 CFU/mL.
(§3) The MIC assay was performed in a flat-bottom 96-microtiter plate. 50 μL of MHB-II was added into columns 2-11, and 100 μL to column 12 for sterility control. 100 μL of the 8 mM test compound solution (method 1) was added to column 1. A two-fold dilution series of the solution in MHB-II was achieved by resuspending 50 μL of the 8 mM solution from column 1 to column 2. This step was repeated until column 10. The respective concentration of Tween 80 and DMSO in column 1 was 2.5%, which is two-fold diluted throughout the plate. 50 μL of the bacterial suspension was added to column 1-11. The microtiter plates were sealed with adhesive polyethylene film for sealing microplates (Diversified Biotech) and incubated for 24 h at 37° C. After incubation the OD was measured at 600 nm with the Varioskan (Thermo Fisher Scientific). The minimal concentration which causes reduction of final OD600 of the bacterial culture by 50% (MIC50) and by 90% (MIC90) was calculated after normalization of the obtained OD values to the growth control in column 11. This assay was repeated three times in three independent experiments.
(§4) Hereafter, the stock solutions of the compounds were used in three repetitions in a minimal inhibitory concentration (MIC) assay at a 2-fold dilution range with various bacteria from the gram-positive and gram-negative group and a yeast, Candida albicans. The concentrations that show only less than 10% growth after 24 h were considered the MIC90-values, whereas the concentrations that show 50% growth after 24 h when compared to the bacterial growth control were considered the MIC50-values. Escherichia coli and Staphylococcus aureus were used as representatives for a gram-negative bacteria and gram-positive bacteria, respectively. Furthermore, the yeast C. albicans was also tested.
(§5) In an Eppendorf tube between 10-20 mg of the test compound was weighed. Hereafter, the required amount of Tween 80 was added, followed by the amount DMSO. After vigorous shaking, the dissolved and transparent dilutions were diluted 10 times with Mueller Hinton Broth (MHB) for the MIC assay. […]

[2] = test system: Streptococcus uberis ATCC 27985; assay: MIC assay; format: cell-based; conditions: for MIC50 / MIC90: Streptococcus uberis, ATCC27985
Experimental: as §1, §2, §3, §4, §5

[3] = test system: Streptococcus agalactiae ATCC 13813; assay: MIC assay; format: cell-based; conditions: for MIC50 / MIC90: Streptococcus agalactiae, ATCC13813
Experimental: as §1, §2, §3, §4, §5

[4] = test system: Acinetobacter baumanni RUH875; assay: MIC assay; format: cell-based; conditions: for MIC90 / MIC50: Acinetobacter
Experimental: as §1, §2, §3, §4, §5

[5] = test system: Escherichia coli ATCC 25922; assay: MIC assay; format: cell-based; conditions: for MIC50 / MIC90: Escherichia coli, ATCC25922
Experimental: as §1, §2, §3, §4, §5

[6] = test system: Lactococcus garvie Isolate 2; assay: MIC assay; format: cell-based, Lactococcus garvieae; conditions: for MIC50 / MIC90: Lactococcus
Experimental: as §1, §2, §3, §4, §5

plant pathogens = assay: Colony diameter on agar plates, all tested fungi (conclusion); format: cell-based; conditions: conclusion of Example 7b
Experimental: In particular, the antimicrobial activity of bis(p-chlorophenyl) disulfide (AM2), bis(p-fluorophenyl) disulfide (AM3), bis(p-chlorophenyl) thiosulfonate (AM6) and diisopropyl thiosulfonate (AM8) of the invention is tested against pathogenic fungi selected from Pythium aphanidermatum, Phytophthora cinnamiomi, Fusarium oxysporum, Sclerotinia sclerotiorum, Rhizoctonia solani and Botrytis cinerea.
Experimental design. The effects of mentioned compounds on growth of the fungi were tested on agar plates with various dilutions of the compounds. The fungus was inoculated in the middle of the agar plate. At various time intervals the diameter of the colony was measured.
The fungi were pregrown on appropriate agar media, for example potato dextrose agar or malt extract agar at 24 C. After 3, 7, 10 and 14 days of incubation at 24 C, the diameter of the fungal colonies were measured on the agar plates. Since the agar plates have a diameter of 8 cm, this was the maximum colony size.
Agar media were prepared with various dilutions of bis(p-chlorophenyl) disulfide (AM2), bis(p-fluorophenyl) disulfide (AM3), bis(p-chlorophenyl) thiosulfonate (AM6) and diisopropyl thiosulfonate (AM8).
The test compounds were added to the agar media when the liquid agar medium was still hand-warm to prevent heat-dependent decomposition of the compounds. 50-fold concentrated stock solutions of the antimicrobial compounds of each dilution were prepared in 50% tween-80 and 50% DMSO (in this way the concentrations DMSO and tween 80 were the same in all agar plates). The following concentrations of the antimicrobial compounds were used for each strain in agar plates: 1.0 mM, 0.50 mM, 0.25 mM, 0.125 mM and 0.063 mM in the corresponding medium as indicated in table 12. Each concentration was tested in 4-fold in 8 cm diameter petridishes and each dish contained 11 ml agar medium.
Hereafter, the plates were inoculated in the middle of the dish. Incubation took place at 24 C. Colony diameters were measured at t=3, 7, 10 and 14 days after inoculation. Since the diameter of the petri dishes are 8 cm this diameter was the maximal diameter that was measured.

[7] = Example 2a, n = 3, LUH14616, read-out: MIC90 Staphylococcus aureus (+) (MRSA)
[8] = Example 2a, n = 3, ATCC 27985, read-out: MIC90 Streptococcus uberis (+)
[9] = Example 2a, n = 3, ATCC 13813, read-out: MIC90 Streptococcus agalactiae (+)
[10] = RUH875, Example 2b, FIG. 1, no MIC90 detected in the tested range, read-out: Average MIC90 A. baumanni (Ab)
[11] = Example 2a, n = 3, RUH875, read-out: MIC90 Acinetobacter baumanni
[12] = Example 2a, n = 3, ATCC 25922, read-out: MIC90 Escherichia coli
[13] = Example 2b, FIG. 1, no MIC90 detected in the tested range, read-out: Average MIC90 E. coli (Ec)
[14] = Example 2a, n = 3, Isolate 2, read-out: MIC90 Lactococcus garvie (+)
[15] = Example 2b, FIG. 1, no MIC90 detected in the tested range, read-out: Average MIC90 L. garvieae (Lg)

SMILES | MIC50 ([1]; Example 2a, n = 3, LUH14616) [µM] | MIC90 [1, 7] [µM] | MIC50 ([2]; Example 2a, n = 3, ATCC 27985) [µM] | MIC90 [2, 8] [µM] | MIC50 ([3]; Example 2a, n = 3, ATCC 13813) [µM] | MIC90 [3, 9] [µM] | MIC90 [4, 10] [µM] | growth of plant pathogens (plant pathogens) | MIC50 Staphylococcus aureus (+) (MRSA) ([1]; Example 2a, n = 3, LUH14616) [µM] | MIC90 Staphylococcus aureus (+) (MRSA) ([1]; Example 2a, n = 3, LUH14616) [µM] | MIC50 Streptococcus uberis (+) ([2]; Example 2a, n = 3, ATCC 27985) [µM] | MIC90 Streptococcus uberis (+) ([2]; Example 2a, n = 3, ATCC 27985) [µM] | MIC50 Streptococcus agalactiae (+) ([3]; Example 2a, n = 3, ATCC 13813) [µM] | MIC90 Streptococcus agalactiae (+) ([3]; Example 2a, n = 3, ATCC 13813) [µM] | MIC50 Acinetobacter baumanni ([4]; Example 2a, n = 3, RUH875) [µM] | MIC90 Acinetobacter baumanni ([4]; Example 2a, n = 3, RUH875) [µM] | MIC50 Escherichia coli ([5]; Example 2a, n = 3, ATCC 25922) [µM] | MIC90 Escherichia coli ([5]; Example 2a, n = 3, ATCC 25922) [µM] | MIC50 Lactococcus garvie (+) ([6]; Example 2a, n = 3, Isolate 2) [µM] | MIC90 Lactococcus garvie (+) ([6]; Example 2a, n = 3, Isolate 2) [µM] | further results
Clc1ccc(SSc2ccc(Cl)cc2)cc1 [Bis (4-chlorophenyl) disulfide, Bis(4-chlorophenyl) disulfide] | < 8 | 190 (≈ 54.6 µg/mL) | 20 (≈ 5.74 µg/mL) | 50 (≈ 14.4 µg/mL) | 10 (≈ 2.87 µg/mL) | 70 (≈ 20.1 µg/mL) | > 1000 | clearly inhibited |  |  |  |  |  |  |  |  |  |  |  |  | MIC90 ([1]; Example 2b, FIG. 1, no MIC90 detected in the tested range, read-out: Average MIC90 S. aureus (Sau)): > 1000 µM; MIC90 ([2]; Example 2b, FIG. 1, no MIC90 detected in the tested range, read-out: Average MIC90 S. uberis (Su)): > 1000 µM; MIC90 ([3]; Example 2b, FIG. 1, no MIC90 detected in the tested range, read-out: Average MIC90 S. agalactiae (Sag)): > 1000 µM; MIC50 ([4]; Example 2a, n = 3, RUH875): > 4000 µM; MIC90 [4, 11]: > 4000 µM; MIC50 ([5]; Example 2a, n = 3, ATCC 25922): > 4000 µM; MIC90 [5, 12]: > 4000 µM; MIC90 [5, 13]: > 1000 µM; MIC50 ([6]; Example 2a, n = 3, Isolate 2): 1350 µM (≈ 388 µg/mL); MIC90 [6, 14]: > 4000 µM; MIC90 [6, 15]: > 1000 µM
O=S(=O)(Sc1ccc(Cl)cc1)c1ccc(Cl)cc1 [Bis (4-chlorophenyl) thiosulfonate, Bis(4-chlorophenyl) thiosulfonate] |  |  |  |  |  |  |  | clearly inhibited | 60 | 750 | 60 | 500 | 160 | 500 | >1000 | >1000 | >1000 | >1000 | 90 | 500 | 
Fc1ccc(SSc2ccc(F)cc2)cc1 [Bis (4-fluorophenyl) disulfide, Bis(4-fluorophenyl) disulfide] | < 8 | 2330 (≈ 593 µg/mL) | 210 (≈ 53.4 µg/mL) | 630 (≈ 160 µg/mL) | 210 (≈ 53.4 µg/mL) | 500 (≈ 127 µg/mL) | > 4000 | clearly inhibited |  |  |  |  |  |  |  |  |  |  |  |  | MIC50 ([4]; Example 2a, n = 3, RUH875): 3000 µM (≈ 763 µg/mL); MIC90 [4, 11]: > 4000 µM; MIC50 ([5]; Example 2a, n = 3, ATCC 25922): 1250 µM (≈ 318 µg/mL); MIC90 [5, 12]: > 4000 µM; MIC90 [5, 13]: > 4000 µM; MIC50 ([6]; Example 2a, n = 3, Isolate 2): 250 µM (≈ 63.6 µg/mL); MIC90 [6, 14]: > 4000 µM; MIC90 [6, 15]: > 4000 µM
[O-][S+](Sc1ccc(F)cc1)c1ccc(F)cc1 (stereo not shown) [Bis (4-fluorophenyl) thiosulfinate, Bis(4-fluorophenyl) thiosulfinate] |  |  |  |  |  |  |  |  | 280 (≈ 75.7 µg/mL) | 1770 (≈ 478 µg/mL) | 420 (≈ 114 µg/mL) | 1500 (≈ 405 µg/mL) | 1040 (≈ 281 µg/mL) | 1670 (≈ 451 µg/mL) | 2000 (≈ 541 µg/mL) | >4000 | 1000 (≈ 270 µg/mL) | >4000 | 130 (≈ 35.1 µg/mL) | 830 (≈ 224 µg/mL) | 
O=S(=O)(Sc1ccc(F)cc1)c1ccc(F)cc1 [Bis (4-fluorophenyl) thiosulfonate, Bis(4-fluorophenyl) thiosulfonate] |  |  |  |  |  |  |  |  | <8 | 1270 | 670 | 1330 | 1330 | 1670 | 2830 | >4000 | 1500 | >4000 | 220 | 830 | 
CC(C)SS(=O)(=O)C(C)C [Di-isopropyl thiosulfonate] |  |  |  |  |  |  |  | clearly inhibited |  |  |  |  |  |  |  |  |  |  |  |  | 
